Measured values reported in patent publication EP4603105A1, “PHARMACEUTICAL COMPOSITION CONTAINING CYCLIC COMPOUND HAVING SELECTIVE KRAS INHIBITORY EFFECT AGAINST HRAS AND NRAS” (CHUGAI SEIYAKU KABUSHIKI KAISHA, priority 2022, dated 2024).
Read-outs that look alike come from different tables or passages of the source. Where a SMILES comes first, the peptide text is derived from it. Bridges are numbered along the chain shown (N, C = ends). [ ]: non-standard residue; d: D form. The star is where a group is joined. hPhe(3-Cl-4-CF3) = N[C@@H](CCc1ccc(C(F)(F)F)c(Cl)c1)C(=O)O; NMeGly(cPent) = CN[C@H](C(=O)O)C1CCCC1; NMeF = CN[C@@H](Cc1ccccc1)C(=O)O; NMeD = CN[C@@H](CC(=O)O)C(=O)O; NMeL = CN[C@@H](CC(C)C)C(=O)O; Morpholide = C1CN(*)CCO1; NMeA = CN[C@@H](C)C(=O)O; Ac5c = NC1(C(=O)O)CCCC1; Aze = O=C(O)[C@@H]1CCN1; Sar = CNCC(=O)O

Key:
[1] = target: GDP-bound NRAS wild-type protein (Homo sapiens, UniProt P01111); experiment: Binding to NRAS by surface plasmon resonance (SPR), KD and KD ratio to KRAS
Sequence of GDP-bound NRAS wild-type protein (P01111 whole entry): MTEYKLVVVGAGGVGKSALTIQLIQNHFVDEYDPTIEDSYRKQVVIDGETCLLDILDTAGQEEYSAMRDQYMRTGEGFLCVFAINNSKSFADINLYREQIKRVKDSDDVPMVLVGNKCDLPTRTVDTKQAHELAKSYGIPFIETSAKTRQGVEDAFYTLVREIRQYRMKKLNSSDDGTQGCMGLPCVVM
In short: (§1)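 Compound binding is evaluated by SPR single-cycle kinetics, with concentrations added intermittently from low to high for 75 s each. Target surfaces carry GDP-loaded biotinylated Avi-RAS at about 100–300 RU, regenerated after each cycle; temperature 30°C. A 1:1 binding model gives KD.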

HRAS wild-type protein = HRAS wild-type protein (Homo sapiens, UniProt P01112); experiment: Binding to HRAS by surface plasmon resonance (SPR), KD and KD ratio to KRAS
Sequence of HRAS wild-type protein (P01112 whole entry): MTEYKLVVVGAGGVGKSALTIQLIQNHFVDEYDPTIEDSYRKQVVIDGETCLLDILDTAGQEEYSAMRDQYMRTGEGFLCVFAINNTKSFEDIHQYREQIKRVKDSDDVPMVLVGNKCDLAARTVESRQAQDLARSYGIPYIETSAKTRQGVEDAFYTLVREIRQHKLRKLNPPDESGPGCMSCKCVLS
In short: as §1

[2] = tested on: human lung cancer strain NCI-H441; type: cell-based
In short: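 Proliferation was scored by […] measured after the reagent was added to cultures kept at 37°C in 5% carbon dioxide.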

[3] = ratio of the KD value with respect to GDP-bound NRAS wild-type protein to the KD value with respect to KRAS
[4] = ratio of the KD value with respect to HRAS wild-type protein to the KD value with respect to KRAS
[5] = ratio of KD for GDP-bound NRAS wild-type protein to KD for KRAS
[6] = ratio of KD for HRAS wild-type protein to KD for KRAS

Row | Compound | IC50 [2] | IC50 ([2]; NCI-H441 cells, 4 days, CellTiter-Glo, read-out: NCl-H441 IC50) | NRAS /KRAS [1, 3] | HRAS /KRAS (HRAS wild-type protein; [4]) | NRAS /KRAS ([1]; ratio of KD value for GDP-bound NRAS wild-type protein to KD value for KRAS (SPR)) | HRAS /KRAS (HRAS wild-type protein; ratio of KD value for HRAS wild-type protein to KD value for KRAS (SPR)) | NRAS /KRAS [1, 5] | HRAS /KRAS (HRAS wild-type protein; [6])
1 | CCO[C@@H]1C[C@H]2C(=O)NC3(CCC3)C(=O)N(C)[C@@H](C3CCCC3)C(=O)N(C)[C@H](C(=O)N(C)CC)CC(=O)N(C)[C@@H](CC)C(=O)N[C@@H]([C@@H](C)CC)C(=O)N(C)CC(=O)N(C)[C@H]3C/C=C\CCN(C3=O)[C@@H](CC3CCCCC3)C(=O)N(C)CC(=O)N[C@@H](CCc3cc(F)c(C(F)(F)F)c(F)c3)C(=O)N2C1 [PP1552] | 15.9 nM | – | – | – | A (a compound having 10 or more and less than 20 is denoted as A) | A (a compound having 10 or more and less than 20 is denoted as A) | – | –
2 | CCO[C@@H]1C[C@H]2C(=O)NC3(CCCC3)C(=O)N(C)[C@@H](C3CCCC3)C(=O)N(C)[C@H](C(=O)N3CCOCC3)CC(=O)N(C)[C@@H](CC)C(=O)N[C@@H]([C@@H](C)CC)C(=O)N(C)CC(=O)N(C)[C@H]3C[C@@H](C)CCN(C3=O)[C@@H](Cc3ccc(C(F)(F)F)cc3)C(=O)N(C)CC(=O)N[C@@H](CCc3cc(F)c(C(F)(F)F)c(F)c3)C(=O)N2C1 [PP1029] | 24.3 nM | – | – | – | – | – | C (A compound having a KD ratio of 0.1 or more and less than 3 is denoted as C) | B (a compound having 3 or more and less than 10 is denoted as B)
3 | CCO[C@@H]1C[C@H]2C(=O)NC3(CC(C)(C)C3)C(=O)N(C)[C@@H](C3CCCC3)C(=O)N(C)[C@H](C(=O)N(C)C)CC(=O)N(C)[C@@H](CC)C(=O)N[C@@H]([C@@H](C)CC)C(=O)N(C)CC(=O)N(C)[C@H]3C/C=C\CCN(C3=O)[C@@H](Cc3ccc(Cl)cc3F)C(=O)N(C)CC(=O)N[C@@H](CCc3cc(F)c(C(F)(F)F)c(F)c3)C(=O)N2C1 [PP2048] | 3.6 nM | – | A (a compound having 10 or more and less than 20 is denoted as A) | B (a compound having 3 or more and less than 10 is denoted as B) | – | – | – | –
4 | CC[C@H](C)[C@@H]1NC(=O)[C@H](CC(C)C)N(C)C(=O)C[C@@H](C(=O)N2CCOCC2)N(C)C(=O)[C@H](C2CCCC2)N(C)C(=O)C2(CCCC2)NC(=O)[C@@H]2CCCN2C(=O)[C@H](CCc2ccc(C(F)(F)F)c(Cl)c2)NC(=O)CN(C)C(=O)[C@H](Cc2ccccc2)N(C)C(=O)[C@@H]2CCN2C(=O)[C@H](C)N(C)C1=O [PP0011] ([NMeL]I[NMeA][Aze][NMeF][Sar][hPhe(3-Cl-4-CF3)]P[Ac5c][NMeGly(cPent)][NMeD]-Morpholide; lactam N-11) | 5.8 nM | – | – | – | – | – | C (A compound having a KD ratio of 0.1 or more and less than 3 is denoted as C) | C (A compound having a KD ratio of 0.1 or more and less than 3 is denoted as C)
5 | CCO[C@@H]1CCN2C(=O)[C@H](CCc3cc(F)c(C(F)(F)F)c(F)c3)NC(=O)CN(C)C(=O)[C@H](Cc3ccc(C(F)(F)F)cc3)N3CCCC[C@@H](C3=O)N(C)C(=O)CN(C)C(=O)[C@H]([C@@H](C)CC)NC(=O)[C@H](CC(C)C)N(C)C(=O)C[C@@H](C(=O)N3CCOCC3)N(C)C(=O)[C@H](C3CCCC3)N(C)C(=O)C3(CCC3)NC(=O)[C@H]12 [PP1079] | 27.2 nM | – | – | – | – | – | B (a compound having 3 or more and less than 10 is denoted as B) | B (a compound having 3 or more and less than 10 is denoted as B)

More lines, main results first:

Row | IC50 [2] | IC50 ([2]; NCI-H441 cells, 4 days, CellTiter-Glo, read-out: NCl-H441 IC50) | Compound | NRAS /KRAS [1, 3] | HRAS /KRAS (HRAS wild-type protein; [4]) | NRAS /KRAS ([1]; ratio of KD value for GDP-bound NRAS wild-type protein to KD value for KRAS (SPR)) | HRAS /KRAS (HRAS wild-type protein; ratio of KD value for HRAS wild-type protein to KD value for KRAS (SPR)) | NRAS /KRAS [1, 5] | HRAS /KRAS (HRAS wild-type protein; [6])
6 | 40.3 nM | – | CCO[C@@H]1C[C@H]2C(=O)NC3(CC(C)(C)C3)C(=O)N(C)[C@@H](C(CC)CC)C(=O)N(C)[C@H](C(=O)N(C)C)CC(=O)N(C)[C@@H](C(C)C)C(=O)N[C@@H]([C@@H](C)CC)C(=O)N(C)CC(=O)N(C)[C@H]3C/C=C\CCN(C3=O)[C@@H](Cc3ccc(C(F)(F)F)cc3)C(=O)N(C)CC(=O)N[C@@H](CCc3ccc(Cl)c(Cl)c3)C(=O)N2C1 [PP2181] | AA (a compound having 20 or more is denoted as AA) | A (a compound having 10 or more and less than 20 is denoted as A) | – | – | – | –
7 | – | 10.4 nM | CCO[C@@H]1C[C@H]2C(=O)NC3(CC(C)(C)C3)C(=O)N(C)[C@@H](C3CCCC3)C(=O)N(C)[C@H](C(=O)N(C)C)CC(=O)N(C)[C@@H](CC(C)C)C(=O)N[C@@H]([C@@H](C)CC)C(=O)N(C)CC(=O)N(C)[C@H]3C/C=C\CCN(C3=O)[C@@H](Cc3ccc(OC)cc3)C(=O)N(C)CC(=O)N[C@@H](CCc3ccc(C(F)(F)F)c(OC)c3)C(=O)N2C1 [PP2693] | – | – | – | – | A (a compound having 10 or more and less than 20 is denoted as A) | B (a compound having 3 or more and less than 10 is denoted as B)
